What follows are compounds tested against P2X7 receptor (Homo sapiens (Human), UniProt Q99572) (assay: P2X7 FLIPR assay: antagonism of BzATP response in 293 HEK cells stably expressing P2X7 receptor). Details: FLIPR fluorescence (Fluo-4), agonist BzATP, 293 HEK cells stably transfected with P2X7 receptor.
Format: cell-based
Outline: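 Antagonist IC50 derived from FLIPR Tetra Fluo-4 calcium signal evoked by BzATP. Compound pre-incubation was 30 min at room temperature on P2X7-expressing HEK293 cells, seeded 24 h before in low-serum medium and dye-loaded 30 min at 37 °C then 30 min at RT.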

Sequence of P2X7 receptor (Q99572 whole entry): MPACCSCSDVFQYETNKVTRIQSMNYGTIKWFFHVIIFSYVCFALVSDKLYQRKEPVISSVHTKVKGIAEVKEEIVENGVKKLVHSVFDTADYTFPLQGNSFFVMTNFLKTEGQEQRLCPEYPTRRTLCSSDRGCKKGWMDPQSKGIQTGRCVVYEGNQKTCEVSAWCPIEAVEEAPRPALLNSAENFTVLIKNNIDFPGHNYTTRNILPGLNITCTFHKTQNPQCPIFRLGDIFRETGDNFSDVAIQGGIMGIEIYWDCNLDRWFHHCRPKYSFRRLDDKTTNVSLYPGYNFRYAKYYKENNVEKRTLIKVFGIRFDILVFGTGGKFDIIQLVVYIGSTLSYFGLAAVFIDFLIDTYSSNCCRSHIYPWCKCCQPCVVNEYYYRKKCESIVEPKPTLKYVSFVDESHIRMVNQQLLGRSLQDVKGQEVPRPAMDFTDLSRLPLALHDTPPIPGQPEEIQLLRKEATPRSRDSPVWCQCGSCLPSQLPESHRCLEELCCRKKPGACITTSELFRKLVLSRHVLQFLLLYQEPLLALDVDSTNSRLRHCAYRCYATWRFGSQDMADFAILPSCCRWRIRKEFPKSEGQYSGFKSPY

IC50 [µM] | SMILES
0.037 | Cc1ncc(C(CNC(=O)c2cccc(OC(F)F)c2Cl)N2CCC(F)(F)CC2)cn1 (single isomer, unassigned; (-)) [(−)2-chloro-3-(difluoromethoxy)-N-[2-(4,4-difluoro-1-piperid] [(−)2-chloro-3-(difluoromethoxy)-N-(2-(4,4-difluoropiperidin-1-yl)-2-(2-methylpyrimidin-5-yl)ethyl)benzamide]
0.0082 | COc1cccc(C(=O)NCC(c2cnc(C(F)(F)F)nc2)N2CCOCC2)c1Cl (single isomer, unassigned; (-)) [(−)2-chloro-3-methoxy-N-[2-morpholino-2-[2-(trifluoromethyl)] [(−)2-chloro-3-methoxy-N-(2-morpholino-2-(2-(trifluoromethyl)pyrimidin-5-yl)ethyl)benzamide]
0.051 | CS(=O)(=O)c1ccc(Cl)c(C(=O)NCC(c2ccc(C(F)(F)F)nc2)N2CCOCC2)c1 (single isomer, unassigned; (-)) [(−)2-chloro-5-methylsulfonyl-N-[2-morpholino-2-[6-(trifluoro] [(−)2-chloro-5-(methylsulfonyl)-N-(2-morpholino-2-(6-(trifluoromethyl)pyridin-3-yl)ethyl)benzamide]
0.0061 | O=C(NCC(c1ccc(C(F)(F)F)nc1)N1CCOCC1)c1c(F)cccc1Cl (single isomer, unassigned; (-)) [(−)2-chloro-6-fluoro-N-(2-morpholino-2-(6-(trifluoromethyl)p] [(−)2-chloro-6-fluoro-N-(2-morpholino-2-(6-(trifluoromethyl)pyridin-3-yl)ethyl)benzamide]
0.0026 | COc1cccc(C(=O)NCC(c2ccc(F)cc2)N2CCC(F)(F)CC2)c1Cl (single isomer, unassigned; (-)) [(−)2-chloro-N-(2-(4,4-difluoropiperidin-1-yl)-2-(4-fluorophenyl)ethyl)-3-methoxybenzamide]
0.047 | CC(C)S(=O)(=O)c1ccc(Cl)c(C(=O)NCC(c2ccc(Cl)cc2)N2CCOCC2)c1 (single isomer, unassigned; (-)) [(−)2-chloro-N-(2-(4-chlorophenyl)-2-morpholinoethyl)-5-(isopropylsulfonyl)benzamide]
0.011 | O=C(NCC(c1cnc(C2CC2)nc1)N1CCC(F)(F)CC1)c1c(F)cccc1Cl (single isomer, unassigned; (-)) [(−)2-chloro-N-[2-(2-cyclopropylpyrimidin-5-yl)-2-(4,4-difluo] [(−)2-chloro-6-fluoro-N-(2-(2-cyclopropylpyrimidin-5-yl)-2-(4,4-difluoropiperidin-1-yl)ethyl)benzamide]
0.0076 | O=C(NCC(c1cnc(C2CC2)nc1)N1CCC(F)(F)CC1)c1ccccc1Cl (single isomer, unassigned; (-)) [(−)2-chloro-N-[2-(2-cyclopropylpyrimidin-5-yl)-2-(4,4-difluo] [(−)2-chloro-N-(2-(2-cyclopropylpyrimidin-5-yl)-2-(4,4-difluoropiperidin-1-yl)ethyl)benzamide]
0.12 | Cc1ncc(C(CNC(=O)c2ccccc2Cl)N2CCCCC2)cn1 (single isomer, unassigned; (-)) [(−)2-chloro-N-[2-(2-methylpyrimidin-5-yl)-2-(1-piperidyl)eth] [(−)2-chloro-N-(2-(2-methylpyrimidin-5-yl)-2-(piperidin-1-yl)ethyl)benzamide]
0.11 | Cc1ncc(C(CNC(=O)c2ccccc2Cl)N2CCOCC2)cn1 (single isomer, unassigned; (-)) [(−)2-chloro-N-[2-(2-methylpyrimidin-5-yl)-2-morpholino-ethyl] [(−)2-chloro-N-(2-(2-methylpyrimidin-5-yl)-2-morpholinoethyl)benzamide]
0.041 | Cc1ncc(C(CNC(=O)c2cccc(F)c2Cl)N2CCCC(F)(F)C2)cn1 (single isomer, unassigned; (-)) [(−)2-chloro-N-[2-(3,3-difluoro-1-piperidyl)-2-(2-methylpyrim] [(−)2-chloro-3-fluoro-N-(2-(3,3-difluoropiperidin-1-yl)-2-(2-methylpyrimidin-5-yl)ethyl)benzamide]
0.28 | Cc1ncc(C(CNC(=O)c2c(F)cccc2Cl)N2CCCC(F)(F)C2)cn1 (single isomer, unassigned; (-)) [(−)2-chloro-N-[2-(3,3-difluoro-1-piperidyl)-2-(2-methylpyrim] [(−)2-chloro-6-fluoro-N-(2-(3,3-difluoropiperidin-1-yl)-2-(2-methylpyrimidin-5-yl)ethyl)benzamide]
0.028 | Cc1ncc(C(CNC(=O)c2ccccc2Cl)N2CCCC(F)(F)C2)cn1 (single isomer, unassigned; (-)) [(−)2-chloro-N-[2-(3,3-difluoro-1-piperidyl)-2-(2-methylpyrim] [(−)2-chloro-N-(2-(3,3-difluoropiperidin-1-yl)-2-(2-methylpyrimidin-5-yl)ethyl)benzamide]
0.23 | Cn1cc(C(CNC(=O)c2ccccc2Cl)N2CCC(F)(F)CC2)cn1 (single isomer, unassigned; (-)) [(−)2-chloro-N-[2-(4,4-difluoro-1-piperidyl)-2-(1-methylpyraz] [(−)2-chloro-N-(2-(4,4-difluoropiperidin-1-yl)-2-(1-methyl-1H-pyrazol-4-yl)ethyl)benzamide]
0.036 | CCc1ncc(C(CNC(=O)c2c(F)cccc2Cl)N2CCC(F)(F)CC2)cn1 (single isomer, unassigned; (-)) [(−)2-chloro-N-[2-(4,4-difluoro-1-piperidyl)-2-(2-ethylpyrimi] [(−)2-chloro-6-fluoro-N-(2-(4,4-difluoropiperidin-1-yl)-2-(2-ethylpyrimidin-5-yl)ethyl)benzamide]
0.017 | CCc1ncc(C(CNC(=O)c2ccccc2Cl)N2CCC(F)(F)CC2)cn1 (single isomer, unassigned; (-)) [(−)2-chloro-N-[2-(4,4-difluoro-1-piperidyl)-2-(2-ethylpyrimi] [(−)2-chloro-N-(2-(4,4-difluoropiperidin-1-yl)-2-(2-ethylpyrimidin-5-yl)ethyl)benzamide]
0.019 | Cc1ncc(C(CNC(=O)c2cccc(F)c2Cl)N2CCC(F)(F)CC2)cn1 (single isomer, unassigned; (-)) [(−)2-chloro-N-[2-(4,4-difluoro-1-piperidyl)-2-(2-methylpyrim] [(−)2-chloro-3-fluoro-N-(2-(4,4-difluoropiperidin-1-yl)-2-(2-methylpyrimidin-5-yl)ethyl)benzamide]
0.011 | COc1cccc(C(=O)NCC(c2cnc(C)nc2)N2CCC(F)(F)CC2)c1Cl (single isomer, unassigned; (-)) [(−)2-chloro-N-[2-(4,4-difluoro-1-piperidyl)-2-(2-methylpyrim] [(−)2-chloro-3-methoxy-N-(2-(4,4-difluoropiperidin-1-yl)-2-(2-methylpyrimidin-5-yl)ethyl)benzamide]
0.032 | Cc1ncc(C(CNC(=O)c2c(F)cccc2Cl)N2CCC(F)(F)CC2)cn1 (single isomer, unassigned; (-)) [(−)2-chloro-N-[2-(4,4-difluoro-1-piperidyl)-2-(2-methylpyrim] [(−)2-chloro-6-fluoro-N-(2-(4,4-difluoropiperidin-1-yl)-2-(2-methylpyrimidin-5-yl)ethyl)benzamide]
0.04 | Cc1ncc(C(CNC(=O)c2cccc(OC(F)(F)F)c2Cl)N2CCC(F)(F)CC2)cn1 (single isomer, unassigned; (-)) [(−)2-chloro-N-[2-(4,4-difluoro-1-piperidyl)-2-(2-methylpyrim] [(−)2-chloro-N-(2-(4,4-difluoropiperidin-1-yl)-2-(2-methylpyrimidin-5-yl)ethyl)-3-(trifluoromethoxy)benzamide]
0.024 | Cc1ncc(C(CNC(=O)c2ccccc2Cl)N2CCC(F)(F)CC2)cn1 (single isomer, unassigned; (-)) [(−)2-chloro-N-[2-(4,4-difluoro-1-piperidyl)-2-(2-methylpyrim] [(−)2-chloro-N-[2-(4,4-difluoro-1-piperidyl)-2-(2-methylpyrimidin-5-yl)ethyl]benzamide]
0.021 | Cc1ccc(C(CNC(=O)c2cccc(F)c2Cl)N2CCC(F)(F)CC2)cn1 (single isomer, unassigned; (-)) [(−)2-chloro-N-[2-(4,4-difluoro-1-piperidyl)-2-(6-methyl-3-pr] [(−)2-chloro-3-fluoro-N-(2-(4,4-difluoropiperidin-1-yl)-2-(2-methylpyridin-5-yl)ethyl)benzamide]
0.022 | Cc1ccc(C(CNC(=O)c2c(F)cccc2Cl)N2CCC(F)(F)CC2)cn1 (single isomer, unassigned; (-)) [(−)2-chloro-N-[2-(4,4-difluoro-1-piperidyl)-2-(6-methyl-3-py] [(−)2-chloro-N-(2-(4,4-difluoropiperidin-1-yl)-2-(6-methylpyridin-3-yl)ethyl)-6-fluorobenzamide]
0.0078 | COc1ccc(C(=O)NCC(c2cnc(C(F)(F)F)nc2)N2CCC(F)(F)CC2)c(Cl)c1OC (single isomer, unassigned; (-)) [(−)2-chloro-N-[2-(4,4-difluoro-1-piperidyl)-2-[2-(trifluorom] [(−)2-chloro-3,4-dimethoxy-N-(2-(4,4-difluoropiperidin-1-yl)-2-(2-(trifluoromethyl)pyrimidin-5-yl)ethyl)benzamide]
0.031 | O=C(NCC(c1cnc(C(F)(F)F)nc1)N1CCC(F)(F)CC1)c1c(F)cc(F)cc1Cl (single isomer, unassigned; (-)) [(−)2-chloro-N-[2-(4,4-difluoro-1-piperidyl)-2-[2-(trifluorom] [(−)2-chloro-4,6-difluoro-N-(2-(4,4-difluoropiperidin-1-yl)-2-(2-(trifluoromethyl)pyrimidin-5-yl)ethyl)benzamide]
0.0022 | COc1ccc(C(=O)NCC(c2cnc(C(F)(F)F)nc2)N2CCC(F)(F)CC2)c(Cl)c1 (single isomer, unassigned; (-)) [(−)2-chloro-N-[2-(4,4-difluoro-1-piperidyl)-2-[2-(trifluorom] [(−)2-chloro-4-methoxy-N-(2-(4,4-difluoropiperidin-1-yl)-2-(2-(trifluoromethyl)pyrimidin-5-yl)ethyl)benzamide]
